Literature values, collected in publication PMC12729893, “Untargeted UHPLC-HRMS Metabolomic Profiling of Cornus mas L. Fruits: Impact of Conventional and Emerging Extraction Methods on Phenolic Composition and Bioactivity” (Antioxidants, 2025).

Compound | α-amylase inhibition according to computational analysis (α-amylase) | α-glucosidase inhibition according to computational analysis (α-glucosidase)
O=c1oc2c(O)c(O)cc3c(=O)oc4c(O)c(O)cc1c4c23 [ellagic acid] | most effective inhibitors | most effective inhibitors
C[C@@H]1O[C@@H](OC[C@H]2O[C@@H](Oc3cc4c(O)cc(O)cc4[o+]c3-c3ccc(O)cc3)[C@H](O)[C@@H](O)[C@H]2O)[C@H](O)[C@H](O)[C@H]1O [pelargonidin 3-robinobioside] |  | most potent inhibitor
